The target in test [1] is Carbonic anhydrase 9 (Homo sapiens, UniProt Q16790). The experiment in a line: Inhibition of human recombinant carbonic anhydrase 9 assessed as inhibition constant incubated for 10 mins by phenol red dye based stopped-flow CO2 hydration assay.
The target in test [2] is Carbonic anhydrase 1 (Homo sapiens, UniProt P00915). The experiment in a line: Inhibition of human recombinant carbonic anhydrase 1 assessed as inhibition constant incubated for 10 mins by phenol red dye based stopped-flow CO2 hydration assay.
In test [3] the target is Carbonic anhydrase 12 (Homo sapiens, UniProt O43570). The experiment in a line: Inhibition of human recombinant carbonic anhydrase 12 assessed as inhibition constant incubated for 10 mins by phenol red dye based stopped-flow CO2 hydration assay.
Test [4] addresses Carbonic anhydrase 2 (Homo sapiens, UniProt P00918). The experiment in a line: Inhibition of human recombinant carbonic anhydrase 2 assessed as inhibition constant incubated for 10 mins by phenol red dye based stopped-flow CO2 hydration assay.
Test [5] addresses Carbonic anhydrase 4 (Homo sapiens, UniProt P22748). Put plainly: Inhibition of human recombinant carbonic anhydrase 4 assessed as inhibition constant incubated for 10 mins by phenol red dye based stopped-flow CO2 hydration assay.

Chain of Carbonic anhydrase 1 (P00915 whole entry): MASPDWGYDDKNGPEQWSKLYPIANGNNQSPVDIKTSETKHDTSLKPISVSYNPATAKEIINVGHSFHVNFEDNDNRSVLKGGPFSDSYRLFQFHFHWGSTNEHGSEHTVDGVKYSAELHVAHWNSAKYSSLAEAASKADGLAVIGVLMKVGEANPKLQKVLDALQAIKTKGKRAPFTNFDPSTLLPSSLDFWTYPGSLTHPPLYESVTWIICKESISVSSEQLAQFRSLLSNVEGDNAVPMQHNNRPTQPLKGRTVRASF
Chain of Carbonic anhydrase 12 (O43570 whole entry): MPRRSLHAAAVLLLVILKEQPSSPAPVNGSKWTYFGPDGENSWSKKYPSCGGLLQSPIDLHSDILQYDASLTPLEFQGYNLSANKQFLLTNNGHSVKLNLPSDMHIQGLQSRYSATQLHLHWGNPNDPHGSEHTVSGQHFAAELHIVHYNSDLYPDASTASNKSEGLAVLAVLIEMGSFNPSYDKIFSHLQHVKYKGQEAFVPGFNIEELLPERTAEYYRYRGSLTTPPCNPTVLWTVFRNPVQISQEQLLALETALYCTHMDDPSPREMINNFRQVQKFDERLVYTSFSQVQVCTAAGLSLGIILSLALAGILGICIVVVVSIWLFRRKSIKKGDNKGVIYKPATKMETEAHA
Chain of Carbonic anhydrase 4 (P22748 whole entry): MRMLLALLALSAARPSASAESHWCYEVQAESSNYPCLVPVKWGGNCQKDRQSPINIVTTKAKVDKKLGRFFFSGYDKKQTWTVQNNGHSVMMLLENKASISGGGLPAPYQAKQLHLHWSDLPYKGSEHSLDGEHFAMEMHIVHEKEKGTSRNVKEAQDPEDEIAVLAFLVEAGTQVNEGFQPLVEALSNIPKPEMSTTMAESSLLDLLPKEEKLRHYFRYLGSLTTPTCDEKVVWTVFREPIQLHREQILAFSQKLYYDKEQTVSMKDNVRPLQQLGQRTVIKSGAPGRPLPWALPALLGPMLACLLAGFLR

The Ki is a dissociation constant, usually derived from enzyme kinetics or from competition with a known ligand. As to `NS(=O)(=O)c1ccc(CCNC(=O)c2cc(-c3cccc(C(F)(F)F)c3)nc3ccccc23)cc1`, the Ki came to 74.2 nM in test [1], 1820 nM in test [2], 6.9 nM in test [3] and 91.1 nM in test [4].
Turning to `NS(=O)(=O)c1ccc(NC(=O)c2cc(-c3ccc4c(c3)OCO4)nc3ccccc23)cc1`, the Ki was 6.5 nM in test [1], 256 nM in test [2], 72.1 nM in test [3] and 7.1 nM in test [4].
In the case of `NS(=O)(=O)c1cccc(NC(=O)c2cc(-c3cccc(Cl)c3)nc3ccc(Cl)cc23)c1`, the inhibition constant Ki in test [1] came to 349 nM; in test [2], 848 nM; in test [3], 527 nM; in test [4], 257 nM.
In the case of `NS(=O)(=O)c1ccc(CCNC(=O)c2cc(-c3ccc4c(c3)OCO4)nc3ccccc23)cc1`, the inhibition constant (Ki) in test [1] stood at 22.8 nM; in test [2], 3620 nM; in test [3] it was 555 nM; in test [4], 18.3 nM.
With `COc1ccc2nc(-c3ccc(OC)c(OC)c3)cc(C(=O)NCCc3ccc(S(N)(=O)=O)cc3)c2c1`, the inhibition constant Ki in test [1] amounted to 70.3 nM; in test [2], 5540 nM; in test [3], 218 nM; in test [4] it was 588 nM.
Consider `COc1ccc(-c2cc(C(=O)Nc3ccc(S(N)(=O)=O)cc3)c3ccccc3n2)c(OC)c1`, for which the Ki in test [1] was 93.2 nM; in test [2] it was 5320 nM; in test [3] it was 261 nM; in test [4] it was 598 nM.
In the case of `Cc1ccc(-c2cc(C(=O)Nc3cccc(S(N)(=O)=O)c3)c3cc(Cl)ccc3n2)cc1`, the Ki was 245 nM in test [1], 3940 nM in test [2], 757 nM in test [3] and 293 nM in test [4].
On to `CCN(C1CC(C)S(=O)(=O)c2sc(S(N)(=O)=O)cc21)S(=O)(=O)c1cccc2cccnc12` (stereo not drawn), for which the Ki in test [5] was determined as 10 nM; in test [4], 5 nM.
For the compound `COc1ccc2nc(-c3ccccc3OC)cc(C(=O)NCCc3ccc(S(N)(=O)=O)cc3)c2c1`, the Ki stood at 67.7 nM in test [1], 902 nM in test [2], 851 nM in test [3] and 382 nM in test [4].
Consider `NS(=O)(=O)c1cc(C(=O)CSc2nc3c(cnc4ccccc43)[nH]2)ccc1Cl`, for which the Ki turned out to be 1.3 nM in test [2], 0.1 nM in test [3] and 0.03 nM in test [4].
With `COc1ccc(-c2cc(C(=O)Nc3cccc(S(N)(=O)=O)c3)c3ccccc3n2)cc1OC`, the inhibition constant (Ki) stood at 78.2 nM in test [1], 888 nM in test [2], 76.2 nM in test [3] and 388 nM in test [4].
For `COc1ccc(-c2cc(C(=O)Nc3ccc(S(N)(=O)=O)cc3)c3cc(Cl)ccc3n2)cc1OC`, the Ki in test [1] is 309 nM; in test [2] it was 797 nM; in test [3] it was 215 nM; in test [4] it was 305 nM.
In the case of `NS(=O)(=O)c1cccc(NC(=O)c2cc(-c3ccccc3)nc3ccc(Cl)cc23)c1`, the Ki in test [1] was 330 nM; in test [2], 6600 nM; in test [3], 71.1 nM; in test [4], 172 nM.
Regarding `COc1ccc(-c2cc(C(=O)NCCc3ccc(S(N)(=O)=O)cc3)c3ccccc3n2)cc1OC`, the Ki in test [1] was found to be 9.7 nM; in test [2], 91.8 nM; in test [3], 88.5 nM; in test [4], 35.2 nM.
Regarding `COc1ccc2nc(-c3ccc(Cl)cc3Cl)cc(C(=O)Nc3cccc(S(N)(=O)=O)c3)c2c1`, the Ki came to 93.5 nM in test [1], 896 nM in test [2], 64.8 nM in test [3] and 61.7 nM in test [4].
Regarding `NS(=O)(=O)c1ccc(CCNC(=O)c2cc(-c3cccc(Br)c3)nc3ccccc23)cc1`, the Ki worked out at 39.3 nM in test [1], 977 nM in test [2], 30.9 nM in test [3] and 9.6 nM in test [4].
In the case of `COc1ccc2nc(-c3ccccc3)cc(C(=O)Nc3ccc(S(N)(=O)=O)cc3)c2c1`, the Ki in test [1] amounted to 35.7 nM; in test [2], 535 nM; in test [3], 56.7 nM; in test [4], 91.3 nM.
For the compound `NS(=O)(=O)c1ccc(NC(=O)c2cc(-c3cccc(Cl)c3)nc3ccccc23)cc1`, the Ki in test [1] was found to be 97.1 nM; in test [2] it was 838 nM; in test [3], 72.8 nM; in test [4], 141 nM.
For `NS(=O)(=O)c1cccc(NC(=O)c2cc(-c3cccc(Br)c3)nc3ccccc23)c1`, in that order: 91.3 nM, 854 nM, 341 nM and 156 nM.
As for `COc1ccc2nc(-c3ccccc3)cc(C(=O)NCCc3ccc(S(N)(=O)=O)cc3)c2c1`, the Ki in test [1] is 75.5 nM; in test [2] it was 933 nM; in test [3] it was 391 nM; in test [4], 487 nM.
The corresponding values for `NS(=O)(=O)c1ccc(NC(=O)c2cc(-c3cccc(C(F)(F)F)c3)nc3ccccc23)cc1` are 421 nM, 659 nM, 169 nM and 262 nM.
On to `NS(=O)(=O)c1ccc(CCNC(=O)c2cc(-c3ccccc3)nc3ccc(Br)cc23)cc1`, for which the Ki in test [1] stood at 58.8 nM; in test [2], 6280 nM; in test [3], 758 nM; in test [4], 867 nM.
Take `O=C(/C=C/c1sc(N2CCOCC2)nc1-c1ccc([N+](=O)[O-])cc1)Nc1ccc(Br)cc1`: the results for the Ki in test [1], in test [3] and in test [4] were 54.7 nM, 8.8 nM and 9.3 nM, respectively.
Turning to `NS(=O)(=O)c1cccc(NC(=O)c2cc(-c3ccccc3)nc3ccccc23)c1`, the Ki stood at 67.4 nM in test [1], 966 nM in test [2], 9.6 nM in test [3] and 298 nM in test [4].
Take `COc1ccc2nc(-c3ccc(OC)c(OC)c3)cc(C(=O)Nc3cccc(S(N)(=O)=O)c3)c2c1`: the inhibition constant (Ki) in test [1] stood at 51.3 nM; in test [2], 665 nM; in test [3] it was 426 nM; in test [4] it was 97.8 nM.
As to `NS(=O)(=O)c1ccc(NC(=O)Cn2cc(/C=C/C(=O)c3cccc(C(F)(F)F)c3)c3ccccc32)cc1`, the figures for the Ki in test [1] and in test [4] were 31 nM and 2.3 nM, respectively.
As for `NS(=O)(=O)c1cccc(NC(=O)c2cc(-c3cccc(C(F)(F)F)c3)nc3ccccc23)c1`, the inhibition constant (Ki) turned out to be 64.6 nM in test [1], 3770 nM in test [2], 365 nM in test [3] and 87.8 nM in test [4].
For `NS(=O)(=O)c1ccc(NC(=O)c2cc(-c3ccccc3)nc3ccccc23)cc1`, the Ki in test [1] stood at 70.4 nM; in test [2] it was 537 nM; in test [3], 130 nM; in test [4], 54.7 nM.
As for `NS(=O)(=O)c1cccc(NC(=O)c2cc(-c3ccc4c(c3)OCO4)nc3ccccc23)c1`, the inhibitory constant (Ki) is 65.4 nM in test [1], 1460 nM in test [2], 88.9 nM in test [3] and 478 nM in test [4].
For `COc1ccc2nc(-c3ccc(OC)c(OC)c3)cc(C(=O)Nc3ccc(S(N)(=O)=O)cc3)c2c1`, the Ki in test [1] was 9.1 nM; in test [2] it was 416 nM; in test [3], 75.5 nM; in test [4] it was 26.2 nM.
On to `COc1ccc2nc(-c3ccccc3C)cc(C(=O)Nc3ccc(S(N)(=O)=O)cc3)c2c1`, for which the Ki in test [1] was found to be 21.4 nM; in test [2], 555 nM; in test [3], 46.9 nM; in test [4], 28.5 nM.
For `NS(=O)(=O)c1ccc(CCNC(=O)c2cc(-c3ccccc3)nc3ccc(Cl)cc23)cc1`, in that order: 47.6 nM, 1890 nM, 6.7 nM and 42.9 nM.
Take `COc1ccc2nc(-c3ccccc3OC)cc(C(=O)Nc3ccc(S(N)(=O)=O)cc3)c2c1`: the inhibition constant Ki in test [1] stood at 37.2 nM; in test [2] it was 283 nM; in test [3], 8.8 nM; in test [4], 44.5 nM.
Regarding `COc1ccc(-c2cc(C(=O)Nc3cccc(S(N)(=O)=O)c3)c3cc(Cl)ccc3n2)cc1OC`, the inhibition constant Ki was determined as 247 nM in test [1], 831 nM in test [2], 423 nM in test [3] and 253 nM in test [4].
For the compound `COc1ccc2nc(-c3ccc(Cl)cc3Cl)cc(C(=O)NCCc3ccc(S(N)(=O)=O)cc3)c2c1`, the Ki stood at 73.8 nM in test [1], 6340 nM in test [2], 438 nM in test [3] and 674 nM in test [4].
For `COc1ccc(-c2cc(C(=O)NCCc3ccc(S(N)(=O)=O)cc3)c3cc(Cl)ccc3n2)cc1OC`, in that order: 91.6 nM, 765 nM, 302 nM and 187 nM.
